The values that follow come from patent US10316057B2, “Tandem facial amphiphiles” (WISCONSIN ALUMNI RESEARCH FOUNDATION, priority 2011, dated 2019).

Structures can show the parent of a compound that is named as a salt.

Series [1] in a line: Water solubility and hydrogel formation. Format: physicochemical. How it is done: (§1) TFA-0 forms a hydrogel at concentrations >0.4 wt %, and this compound was not studied further. The other three TFAs are soluble to 5-10 wt % in aqueous media. Critical micelle concentrations (CMC) were determined by monitoring solubilization of a hydrophobic fluorescent dye, […] (Chattopadhyay et al., Anal. Biochem. 1984, 139, 408-412), and the hydrodynamic radii (Rh) of the micelles were determined via dynamic light scattering (DLS). Table 1 compares the data for TFAs with those for DDM, a conventional detergent that is very widely used for MP applications; DDM and the TFAs share maltose as their hydrophilic moieties. CMC values of the three TFAs are smaller than that of DDM, whether CMC is measured in units of mM or wt %.
Several amphiphiles (TFA 1a-10a) were prepared and evaluated for their water solubility and critical micelle concentration (CMC). […] Examples of these TFAs include compounds of Formula VI: […]
These TFAs can be used to prepare hydrogels, which can be used tissue engineering or drug delivery applications. Examples of the generally water-insoluble TFAs include compounds of Formula XX: […]
(§2) Analysis of these TFAs for their CMC values provided the data in Table 3.

Series [2] in a line: Critical micelle concentration by solubilization of a hydrophobic fluorescent dye. Format: physicochemical.
Excerpt: The “Critical Micelle Concentration” (CMC) refers to the concentration of a detergent (e.g., an amphiphile as described herein) in an aqueous solution at which the detergent molecules self-assemble into micelles. Below the CMC, detergents are mostly monomeric; above the CMC, micelle concentration increases linearly with detergent concentration. The CMC is dependent upon many factors and is detergent-specific. The CMC of a detergent can be determined experimentally by measuring the solubilization of a water-insoluble dye or fluorophore while varying the concentration of detergent. A CMC may also be determined by measuring the diminution of the surface tension of an aqueous solution as a function of detergent concentration (CMCs determined by either method correlate with each other). The CMC is determined by extrapolating the plot of solubilization vs. concentration (or surface tension vs. concentration) in the two linear regions above and below the CMC. Where the two lines intersect is the CMC. The CMC can also be determined by the method of Nugebauer, J. M. (1990), Methods in Enzymology, 182:239-253.
as §1, §2

The nature of series [3]: Hydrodynamic radii of micelles by dynamic light scattering (DLS). The series is classed as physicochemical. The conditions noted are these: 0.5 wt % amphiphile in water, 25° C.; mean ± SD, n = 3. As for the experimental part: as §1
Each TFA and DDM was dissolved in distilled, deionized (DI) water to obtain 1 mL of a solution containing 0.5 wt % amphiphile. Each solution was filtered through a 0.02 μm filter for DLS measurements. A 100-mW, 532-nm laser (Compass 315M-100, Coherent, Santa Clara, Calif.) illuminated a temperature-controlled glass cell at 25° C. that was filled with a refractive-index matching fluid (decahydronaphthalene, Fisher Scientific, Pittsburgh, Pa.). The scattered light was collected at an angle of 90° for about 30 minutes. Rh values were determined using the integrated dynamics software that analyzes the time scale of the scattered light intensity fluctuations by an autocorrelation function. The autocorrelation functions (ACFs) were obtained using a BI-9000AT digital autocorrelator (Brookhaven Instruments, Holtsville, N.Y.). Measurements were repeated three times.

The subject of series [4] is leucine transporter (LeuT WT). As to the kind of experiment: LeuT functionality assay ([3H]-Leu binding by scintillation proximity assay). Details: species or system Aquifex aeolicus. The following applies: higher amphiphile concentration, CMC+0.2 wt %, room temperature. From the text: The wild type of bacterial leucine transporter (LeuT WT) was examined because the functional state of this membrane protein is readily assessed by using a scintillation proximity assay (SPA) (Quick et al., Proc. Natl. Acad. Sci. USA 2007, 104, 3603-3608) to monitor binding of radiolabelled leucine. LeuT was initially extracted with DDM and then diluted with amphiphile-containing solutions to generate final TFA concentrations of 0.04 wt % or 0.2 wt % (residual DDM=0.005 wt %). Control samples had 0.05 wt % or 0.2 wt % DDM (overall, the final concentrations were CMC+0.04 wt % or CMC+0.2 wt %).
The wild type of the leucine transporter (LeuT WT) from Aquifex aeolicus was expressed in Escherichia coli essentially as described by Deckert et al. (Nature 392, 353-358 (1998)). The pET16b-LeuT WT-8His plasmid was kindly provided by Dr. Eric Gouaux, Vollum Institute, Portland Oreg. LeuT WT was extracted from isolated bacterial membranes solubilized with 1% DDM, bound to Ni^2+-affinity Chelating Sepharose Fast Flow resin (GE Healthcare, USA), and eluted in buffer consisted of 20 mM Tris-HCl (pH 8.0), 1 mM NaCl, 199 mM KCl, 0.05% DDM and 300 mM imidazole. […] After incubation at room temperature, at the indicated time points, samples were centrifuged and the protein concentration was determined by absorbance measurements at 280 nm. Concomitantly, [^3H]-Leu binding was determined using scintillation proximity assay (SPA) (Quick and Javitch, Proc. Natl. Acad. Sci. USA 104, 3603-3608 (2007)), with the reaction mixture consisted of 5 μL from the respective samples, 33.3 nM [^3H]-Leu (PerkinElmer, USA) and copper chelate (His-Tag) YSi beads (GE Healthcare). […] Normalized results are expressed as mean±SEM (n=2), as illustrated in FIG. 11 (long-term solubility of LeuT WT incubated in the presence of TFA-1, TFA-3, and DDM at (a) CMC+0.04 wt % or (b) CMC+0.2 wt % at room temperature).

For the compound `C[C@H](CCC(=O)NCCCNC(=O)CC[C@@H](C)[C@H]1CC[C@H]2[C@@H]3CC[C@@H]4C[C@H](O[C@@H]5O[C@H](CO)[C@@H](O[C@H]6O[C@H](CO)[C@@H](O)[C@H](O)[C@H]6O)[C@H](O)[C@H]5O)CC[C@]4(C)[C@H]3C[C@H](O[C@@H]3O[C@H](CO)[C@@H](O[C@H]4O[C@H](CO)[C@@H](O)[C@H](O)[C@H]4O)[C@H](O)[C@H]3O)[C@]12C)[C@H]1CC[C@H]2[C@@H]3CC[C@@H]4C[C@H](O[C@@H]5O[C@H](CO)[C@@H](O[C@H]6O[C@H](CO)[C@@H](O)[C@H](O)[C@H]6O)[C@H](O)[C@H]5O)CC[C@]4(C)[C@H]3C[C@H](O[C@@H]3O[C@H](CO)[C@@H](O[C@H]4O[C@H](CO)[C@@H](O)[C@H](O)[C@H]4O)[C@H](O)[C@H]3O)[C@]12C` [TFA-0], in series [1] (in water), the “concentration at which a hydrogel forms” value is reported as more than 0.4 wt %.

`CCN(CCCN(CC)C(=O)CC[C@@H](C)[C@H]1CC[C@H]2[C@@H]3CC[C@@H]4C[C@H](O[C@@H]5O[C@H](CO)[C@@H](O[C@H]6O[C@H](CO)[C@@H](O)[C@H](O)[C@H]6O)[C@H](O)[C@H]5O)CC[C@]4(C)[C@H]3C[C@H](O[C@@H]3O[C@H](CO)[C@@H](O[C@H]4O[C@H](CO)[C@@H](O)[C@H](O)[C@H]4O)[C@H](O)[C@H]3O)[C@]12C)C(=O)CC[C@@H](C)[C@H]1CC[C@H]2[C@@H]3CC[C@@H]4C[C@H](O[C@@H]5O[C@H](CO)[C@@H](O[C@H]6O[C@H](CO)[C@@H](O)[C@H](O)[C@H]6O)[C@H](O)[C@H]5O)CC[C@]4(C)[C@H]3C[C@H](O[C@@H]3O[C@H](CO)[C@@H](O[C@H]4O[C@H](CO)[C@@H](O)[C@H](O)[C@H]4O)[C@H](O)[C@H]3O)[C@]12C` [TFA-2]: in series [2] (mean ± SD, n = 3), the “CMC” value worked out at 0.013 ± 0.0018 mM and the “CMC (wt %)” value was 0.0028 ± 0.00039 wt %. In series [3], the “Rh (nm), hydrodynamic radius of micelles measured by dynamic light scattering” value was found to be 2.0 ± 0.03 nm.

Regarding `CCCCN(CCCN(CCCC)C(=O)CC[C@@H](C)[C@H]1CC[C@H]2[C@@H]3CC[C@@H]4C[C@H](O[C@@H]5O[C@H](CO)[C@@H](O[C@H]6O[C@H](CO)[C@@H](O)[C@H](O)[C@H]6O)[C@H](O)[C@H]5O)CC[C@]4(C)[C@H]3C[C@H](O[C@@H]3O[C@H](CO)[C@@H](O[C@H]4O[C@H](CO)[C@@H](O)[C@H](O)[C@H]4O)[C@H](O)[C@H]3O)[C@]12C)C(=O)CC[C@@H](C)[C@H]1CC[C@H]2[C@@H]3CC[C@@H]4C[C@H](O[C@@H]5O[C@H](CO)[C@@H](O[C@H]6O[C@H](CO)[C@@H](O)[C@H](O)[C@H]6O)[C@H](O)[C@H]5O)CC[C@]4(C)[C@H]3C[C@H](O[C@@H]3O[C@H](CO)[C@@H](O[C@H]4O[C@H](CO)[C@@H](O)[C@H](O)[C@H]4O)[C@H](O)[C@H]3O)[C@]12C` [TFA-3], in series [2] (mean ± SD, n = 3), the “CMC” value turned out to be 0.007 ± 0.0023 mM and the “CMC (wt %)” value is 0.0016 ± 0.00051 wt %. Moreover, the “Rh (nm), hydrodynamic radius of micelles measured by dynamic light scattering” value in series [3] is 3.3 ± 0.12 nm. The “maintaining LeuT WT function over 12 days” value in series [4] is “matched DDM at the lower concentration”.

Consider `CC(CCC(=O)N(C)CCCN(C)C(=O)CCC(C)C1CCC2C3CCC4CC(OC5OC(CO)C(OC6OC(CO)C(O)C(O)C6O)C(O)C5O)CCC4(C)C3CC(OC3OC(CO)C(OC4OC(CO)C(O)C(O)C4O)C(O)C3O)C12C)C1CCC2C3CCC4CC(OC5OC(CO)C(OC6OC(CO)C(O)C(O)C6O)C(O)C5O)CCC4(C)C3CC(OC3OC(CO)C(OC4OC(CO)C(O)C(O)C4O)C(O)C3O)C12C` (centres unmarked) [TFA-4a], for which, in series [2] (Example 4, Table 3), the “CMC” value turned out to be 0.014 mM and the “CMC (wt. %)” value is given as 0.0030 wt. %.

As to `CC(CCC(=O)NCc1ccc(CNC(=O)CCC(C)C2CCC3C4CCC5CC(OC6OC(CO)C(OC7OC(CO)C(O)C(O)C7O)C(O)C6O)CCC5(C)C4CC(OC4OC(CO)C(OC5OC(CO)C(O)C(O)C5O)C(O)C4O)C23C)cc1)C1CCC2C3CCC4CC(OC5OC(CO)C(OC6OC(CO)C(O)C(O)C6O)C(O)C5O)CCC4(C)C3CC(OC3OC(CO)C(OC4OC(CO)C(O)C(O)C4O)C(O)C3O)C12C` (centres unmarked) [TFA-6a], the “water solubility” value in series [1] (Example 4, under the conditions evaluated) is given as “insoluble”.

For `CCN(CCCN(CC)C(=O)CCC(C)C1CCC2C3CCC4CC(OC5OC(CO)C(OC6OC(CO)C(O)C(O)C6O)C(O)C5O)CCC4(C)C3CC(OC3OC(CO)C(OC4OC(CO)C(O)C(O)C4O)C(O)C3O)C12C)C(=O)CCC(C)C1CCC2C3CCC4CC(OC5OC(CO)C(OC6OC(CO)C(O)C(O)C6O)C(O)C5O)CCC4(C)C3CC(OC3OC(CO)C(OC4OC(CO)C(O)C(O)C4O)C(O)C3O)C12C` (centres unmarked) [TFA-7a], in series [2] (Example 4, Table 3), the “CMC” value was determined as 0.013 mM and the “CMC (wt. %)” value amounted to 0.0028 wt. %.

For `CCCCN(CCCN(CCCC)C(=O)CCC(C)C1CCC2C3CCC4CC(OC5OC(CO)C(OC6OC(CO)C(O)C(O)C6O)C(O)C5O)CCC4(C)C3CC(OC3OC(CO)C(OC4OC(CO)C(O)C(O)C4O)C(O)C3O)C12C)C(=O)CCC(C)C1CCC2C3CCC4CC(OC5OC(CO)C(OC6OC(CO)C(O)C(O)C6O)C(O)C5O)CCC4(C)C3CC(OC3OC(CO)C(OC4OC(CO)C(O)C(O)C4O)C(O)C3O)C12C` (centres unmarked) [TFA-9a], in series [2] (Example 4, Table 3), the “CMC” value is reported as 0.01 mM and the “CMC (wt. %)” value is given as 0.0022 wt. %.

Take `CCCCCN(CCCN(CCCCC)C(=O)CCC(C)C1CCC2C3CCC4CC(OC5OC(CO)C(OC6OC(CO)C(O)C(O)C6O)C(O)C5O)CCC4(C)C3CC(OC3OC(CO)C(OC4OC(CO)C(O)C(O)C4O)C(O)C3O)C12C)C(=O)CCC(C)C1CCC2C3CCC4CC(OC5OC(CO)C(OC6OC(CO)C(O)C(O)C6O)C(O)C5O)CCC4(C)C3CC(OC3OC(CO)C(OC4OC(CO)C(O)C(O)C4O)C(O)C3O)C12C` (centres unmarked) [TFA-10a]: in series [2] (Example 4, Table 3), the “CMC” value was 0.004 mM and the “CMC (wt. %)” value is reported as 0.0009 wt. %.
